Test results from US20240301003A1 (NoNO Inc., priority 2021, published 2024).
Read-outs that look alike come from different tables or passages of the source. Where no end group is shown, it is not given here.

Assays:
NMDAR2B:PSD-95 complexes = target: T1, NMDAR2B:PSD-95 complexes (Rattus norvegicus, UniProt P31016); experiment: Dissociation of NMDAR2B:PSD-95 complexes after 3PVo, immunoprecipitation and Western blotting; assay type: in vivo, Sprague-Dawley rats; details: 7.6 mg/kg 1 hr after stroke onset (3PVo), brains harvested 2 h after onset
T1 construct: Cortical stroke areas were collected for analysis; from tissue; host or cells: rat brain cortex (stroke area) after in vivo dosing
T1 sequence (P31016 whole entry, one chain of several): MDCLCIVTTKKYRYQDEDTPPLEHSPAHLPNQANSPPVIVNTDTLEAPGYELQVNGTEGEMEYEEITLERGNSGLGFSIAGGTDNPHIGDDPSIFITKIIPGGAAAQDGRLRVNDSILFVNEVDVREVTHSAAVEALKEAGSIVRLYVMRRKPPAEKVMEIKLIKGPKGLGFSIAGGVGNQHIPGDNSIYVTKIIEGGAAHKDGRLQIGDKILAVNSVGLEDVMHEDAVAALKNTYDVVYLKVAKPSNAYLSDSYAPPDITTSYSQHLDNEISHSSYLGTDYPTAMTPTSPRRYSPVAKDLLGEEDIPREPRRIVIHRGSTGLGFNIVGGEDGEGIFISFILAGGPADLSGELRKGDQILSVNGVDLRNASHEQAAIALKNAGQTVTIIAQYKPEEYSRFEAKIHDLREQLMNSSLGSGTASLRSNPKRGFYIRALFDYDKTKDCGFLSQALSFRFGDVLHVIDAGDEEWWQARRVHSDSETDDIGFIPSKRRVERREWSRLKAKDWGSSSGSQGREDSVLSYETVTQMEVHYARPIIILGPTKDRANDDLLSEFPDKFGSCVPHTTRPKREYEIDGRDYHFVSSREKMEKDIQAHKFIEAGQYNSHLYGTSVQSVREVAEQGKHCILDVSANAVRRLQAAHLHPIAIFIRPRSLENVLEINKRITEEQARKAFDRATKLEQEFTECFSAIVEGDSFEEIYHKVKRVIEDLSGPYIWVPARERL
Experimental: Sprague-Dawley rats were subject to three pial vessel model (3PVo). […] Brains were harvested 2 h after stroke onsets. Cortical stroke areas were collected for analysis. Immunoprecipitations were performed with anti-PSD-95 or anti-NMDAR2B. The amount of PSD-95 and NMDAR2B in samples was analyzed by Western blotting. Reduction in PSD-95-NMDAR2B complex formation was assessed by fold decrease of placebo versus treatment.

[1] = Plasma concentrations 15 minutes post subcutaneous dose (animals of the 3PVO model); assay type: in vivo, rat; details: single subcutaneous administration, 2.5, 7.6, 25 mg/kg
Experimental: Unlike transient models of stroke in rats where much lower doses are required for neuroprotection, neuroprotection in 3 pial vessel occlusion models of stroke seems to require plasma concentrations of nerinetide at or above 2 ug/mL (or molar equivalent). […] Although the plasma levels continue to increase through about 3 hours then decrease, it is important to achieve rapid accumulation in the blood and brain for emergency indications like stroke. […] For pharmacokinetic sample analysis, calibration standard samples at concentrations of 0, 2.5, 5, 10, 15, 20 and 40 ug/mL of nerinetide were prepared by spiking 1 μL of the appropriate stock to 100 μL of plasma. […] Data is presented as mean±SD.

tMCAo = experiment: Dose range of nerinetide in rat tMCAo model; assay type: in vivo, rats
Experimental: Nerinetide and lodoxamide was administered to rats intravenously as a bolus injection, 60 minutes after tMCAo. […] Bars in A and represent mean±SD, with all individual data points plotted. Asterisks in A indicate P<0.01 when compared to the vehicle group (one-way ANOVA post hoc Tukey's correction for multiple comparisons test) N=12-14 animals/group. […] Significant differences are indicated with an asterisk when compared to the vehicle group (Kruskal-Wallis analysis of variance on ranks with a post-hoc Dunn's correction for multiple comparisons test, *P<0.01). Vehicle: PBS alone. […] Doses up to at least 25 mg/kg were also effective with the highest efficacy being at about 15 mg/kg. The observed wide therapeutic range was attributable to nerinetide, and not to the mast cell degranulation inhibitor lodoxamide, which was present in all solutions to avoid potential hypotension due to histamine release.

[2] = Renal biomarkers or electrolyte imbalance after administration to rats (Table 7); assay type: in vivo; details: rats, IV 7.6 mg/kg
Experimental: NoNO42 was tested for effect on various renal biomarkers or electrolyte imbalance in comparison with nerinetide after administration to rats as shown in Table 7.

tPA = tPA (Homo sapiens, UniProt P00750)
Chain of tPA (P00750 36-562): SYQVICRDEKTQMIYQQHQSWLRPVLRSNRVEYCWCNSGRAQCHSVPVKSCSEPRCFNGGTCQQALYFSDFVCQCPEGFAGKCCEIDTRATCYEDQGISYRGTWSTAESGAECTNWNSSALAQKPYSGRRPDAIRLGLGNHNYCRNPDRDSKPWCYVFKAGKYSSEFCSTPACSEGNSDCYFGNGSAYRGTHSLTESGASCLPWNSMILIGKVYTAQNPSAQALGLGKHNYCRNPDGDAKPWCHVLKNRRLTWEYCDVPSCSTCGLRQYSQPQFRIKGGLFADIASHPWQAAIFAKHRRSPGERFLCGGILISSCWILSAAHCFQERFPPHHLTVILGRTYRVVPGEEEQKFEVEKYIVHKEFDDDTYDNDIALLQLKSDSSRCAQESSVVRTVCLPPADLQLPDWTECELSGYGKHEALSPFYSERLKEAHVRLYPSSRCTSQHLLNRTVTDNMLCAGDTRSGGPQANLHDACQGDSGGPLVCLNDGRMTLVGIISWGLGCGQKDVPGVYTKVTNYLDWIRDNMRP

[3] = human studies, 2.6 mg/kg dose; cited from earlier work
[4] = humans; cited from earlier work
Weight gain of rats = details: IV 7.6 mg/kg
plasmin [5] = target: T2, plasmin (Homo sapiens, UniProt P00747); assay type: in vitro ADME; set-up: challenged with 10 ug/ml plasmin at 37 C
T2 sequence (P00747 581-810 limits assumed, species assumed): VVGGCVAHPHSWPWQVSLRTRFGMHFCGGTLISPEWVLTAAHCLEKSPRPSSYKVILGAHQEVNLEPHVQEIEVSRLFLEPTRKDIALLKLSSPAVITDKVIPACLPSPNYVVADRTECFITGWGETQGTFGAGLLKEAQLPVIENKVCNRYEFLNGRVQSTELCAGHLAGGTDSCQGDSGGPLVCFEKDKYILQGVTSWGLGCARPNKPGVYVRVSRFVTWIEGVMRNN
T2 sequence (P00747 97-580 partner limits assumed, species assumed): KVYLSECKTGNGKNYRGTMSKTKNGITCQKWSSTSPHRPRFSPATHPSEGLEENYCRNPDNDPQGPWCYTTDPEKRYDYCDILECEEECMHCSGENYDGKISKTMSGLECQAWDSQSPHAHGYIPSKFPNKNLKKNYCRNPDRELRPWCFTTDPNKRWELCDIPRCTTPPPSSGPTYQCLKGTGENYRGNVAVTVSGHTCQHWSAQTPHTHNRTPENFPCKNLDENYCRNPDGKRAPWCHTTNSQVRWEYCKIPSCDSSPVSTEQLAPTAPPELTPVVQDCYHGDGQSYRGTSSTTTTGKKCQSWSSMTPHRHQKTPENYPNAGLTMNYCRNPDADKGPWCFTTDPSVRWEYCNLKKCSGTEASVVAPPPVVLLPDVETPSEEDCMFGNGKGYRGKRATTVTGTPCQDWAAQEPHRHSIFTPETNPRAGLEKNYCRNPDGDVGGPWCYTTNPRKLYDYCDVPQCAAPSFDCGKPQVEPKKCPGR
Source text: Plasmin is a serum protease induced by thrombolytic agents, such as tPA. Plasmin cleavage sites can occur on the C-terminal side of basic amino acids residues in a peptide formed of L-amino acids. NA-1 was digested with plasmin and the products analyzed by mass spectrometry. […] However, cleavage at the other two sites may occur to a lesser extent.

plasmin [6] = target: T2, plasmin; assay type: in vitro ADME; set-up: challenged with 10 ug/ml plasmin at 37 C; remark: listed apart in the source
PSD95PDZ2 = PSD95PDZ2 (Homo sapiens, UniProt P78352); experiment: Competitive ELISA with biotinylated-NA-1; details: PSD-95 domain 2, FIG. 12
Chain of PSD95PDZ2 (P78352 160-246 limits assumed): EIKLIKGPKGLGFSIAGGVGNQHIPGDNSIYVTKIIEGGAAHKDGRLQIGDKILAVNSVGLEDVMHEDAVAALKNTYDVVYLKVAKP

[7] = Degradation in rat plasma in vitro, alone or with rt-PA or TNK
Source text: (§1) Samples were collected at 6 different time points.
(§2) The experiment was repeated using TNK-tissue plasminogen activator in place of tPA.

[8] = Degradation in human plasma in vitro, alone or with rt-PA or TNK
Source text: as §1, §2

[9] = tested on: 3-pial vessel occlusion model of stroke
plasmin [10] = target: T2, plasmin; experiment: Plasmin sensitivity: peptides in PBS challenged with 10 ug/ml plasmin, HPLC
[11] = Pharmacokinetic analysis in rats (subcutaneous, pulmonary instillation, intravenous, intramuscular), HPLC
Experimental: Rats were anaesthetized in the supine position (Isoflurane 1.5--%) and allowed to breath spontaneously in 0.5 L/min 02. The left femoral artery was cannulated for blood sampling.
Test agents were prepared at the stablish concentration in a total volume of vehicle. Pulmonary instillation was performed by intubation with a 14G catheter connected to a 1 cc syringe and the test agent will be delivered through the catheter. Subcutaneous (SQ or SC) injection was injected into the area of the left flank, no more than 2 ml of total volume per site.
Each dose was evaluated in 3 rats for each administration strategy. […] For the first experiment, evaluating two different administration routes (SQ and PI), blood samples were collected at 8 different timepoints: Pre and at 7 additional times (1, 2.5, 5, 10, 15, 30, 60 min) post dose (250 ul/sample).
HPLC quantification: Plasma was separated from blood and stored at −−−80° C. until used. […] Standard curves for HPLC were generated from plasma samples spiked with known quantities of test agent.

[12] = IV bolus with lodoxamide 60 minutes after tMCAo

## YGRKKRRQRRRKLSSIESDV [NA-1, reference compound]
NMDAR2B:PSD-95 complexes
  dissociation of preformed NMDAR2B:PSD-95 complexes: able to dissociate preformed NMDAR2B:PSD-95 complexes
[1]
  relation between treatment dose and Cmax: dose proportionality between the treatment dose and the Cmax
tMCAo; [12]
  dose of highest efficacy: about 15 mg/kg
  doses up to which nerinetide was effective: at least 25 mg/kg
tMCAo; IV bolus with lodoxamide 60 minutes after tMCAo, 24 hours
  lowest dose producing significant reduction in infarct volume and improvement in neurological function: 0.25 mg/kg
tMCAo; rat tMCAo model, at least this range
  effective dosage range (reducing infarction size and neurologic deficit): 0.25-25 mg/kg
[2]; Day 4
  Anion Gap: 7.3 mmol/L
  BUN: 13.7 mg/dL
  Cl: 100.7 mmol/L
  Creatinine: 0.2 mg/dL
  Glucose: 178.0 mg/dL
  Hct: 39% ± % PCV
  Hgb: 13.4 g/dL
  K+: 4.8 mmol/L
  Na+: 137.3 mmol/L
  iCa: 1.43 mmol/L
  tCO2: 35.0 mmol/L
[2]; Day 14
  Anion Gap: 9.0 mmol/L
  BUN: 16.7 mg/dL
  Cl: 98.3 mmol/L
  Creatinine: 0.2 mg/dL
  Glucose: 253.3 mg/dL
  Hct: 38% ± % PCV
  Hgb: 13.0 g/dL
  K+: 4.4 mmol/L
  Na+: 136.7 mmol/L
  iCa: 1.45 mmol/L
  tCO2: 34.3 mmol/L
[2]; Pre
  Anion Gap: 7.3 mmol/L
  BUN: 15.0 mg/dL
  Cl: 98.0 mmol/L
  Creatinine: 0.2 mg/dL
  Glucose: 251.7 mg/dL
  Hct: 38% ± % PCV
  Hgb: 13.0 g/dL
  K+: 4.8 mmol/L
  Na+: 135.7 mmol/L
  iCa: 1.46 mmol/L
  tCO2: 35.7 mmol/L
tPA
  degradation, control treatment with tPA: no degradation
  direct cleavage by tPA or TNK: Neither tPA nor TNK directly cleaves NA-1
[3]
  effective plasma concentration: ~10 µg/mL
[4]
  doses at which drops in blood pressure have been observed: above 3.75 mg/kg
Weight gain of rats; Day 4
  Weight: 368.0 grams
Weight gain of rats; Day 14
  Weight: 420.0 grams
Weight gain of rats; Pre
  Weight: 360.3 grams
Plasmin [5]
  plasmin cleavage sites: cleavage at seven of nine potential sites
Plasmin [6]
  degradation on treatment with plasmin: rapidly degraded
PSD95PDZ2
  EC50 (compared between peptides): about the same within experimental error
[7]; rat plasma (FIG. 8)
  degradation with coadministration of TNK: rapid degradation
[7]; rat plasma in vitro, NA-1 65 ug/mL, rt-PA 22.5-135 ug/mL
  NA-1 content decay with tPA versus NA-1 alone: decayed much more rapidly when tPA was co-administered
[7]; rat plasma in vitro, treated with tPA
  time to decay to zero: ≤ 15 min
[8]; human plasma (FIG. 7)
  degradation with coadministration of TNK: rapid degradation
[8]; human plasma in vitro, NA-1 65 ug/mL, rt-PA 22.5-135 ug/mL
  NA-1 content decay with tPA versus NA-1 alone: decayed much more rapidly when tPA was co-administered
[9]; 7.6 mg/kg subcutaneous bolus 60 minutes after onset of stroke
  infarct volume compared to placebo: failed to achieved infarct volume reduction
[9]; 25 mg/kg subcutaneous bolus 60 minutes after onset of stroke
  infarct volume compared to placebo: significant reduction in infarct volume
[9]; 3 pial vessel occlusion models of stroke
  plasma concentration required for neuroprotection: ≥ 2 µg/mL
Plasmin [10]; 10 ug/mL plasmin (FIG. 29)
  time to degradation: ≤ 5 min
Plasmin [10]; about 65 ug/ml peptide in PBS, 10 ug/ml plasmin, 37 C, HPLC
  degradation by plasmin: completely degraded in about five minutes
[11]; intramuscular
  AUC versus intravenous NA-1: somewhat higher
  CMax versus intravenous NA-1: lower
  half-life versus intravenous NA-1: higher
[11]; subcutaneous
  AUC versus the same dose of intravenous NA-1: somewhat lower
  CMax versus the same dose of intravenous NA-1: much lower
  half-life versus intravenous NA-1: longer
